Reference: article PMC7025792 (ACS infectious diseases, 2019)
Values after ≈ are worked out from the molar mass of the structure shown. Values joined by “and” are separate entries in the source; they are usually repeats but may differ in a detail not shown here. Equal values may be shown once.

Assays:
DfrK [1] = biological target: T1, DfrK (Staphylococcus aureus, UniProt C7C2U7); details: read-out: KM, DHF, NADPH saturation 100 μM
DfrG [2] = biological target: T2, DfrG (Staphylococcus aureus, UniProt Q4H3Y3); details: read-out: KM, DHF, NADPH saturation 100 μM
[3] = biological target: human DHFR isoform (HuDHFR) (Homo sapiens, UniProt P00374); details: read-out: KM, DHF, NADPH saturation 100 μM
Chain of human DHFR isoform (HuDHFR) (P00374 whole entry, canonical isoform): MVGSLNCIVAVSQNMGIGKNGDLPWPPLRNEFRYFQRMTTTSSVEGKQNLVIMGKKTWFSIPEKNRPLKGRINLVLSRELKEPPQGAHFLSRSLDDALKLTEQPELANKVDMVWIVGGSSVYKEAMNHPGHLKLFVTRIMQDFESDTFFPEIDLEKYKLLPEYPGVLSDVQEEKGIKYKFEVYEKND

DfrB = DfrB (Staphylococcus aureus, UniProt P0A017); assay type: biochemical; details: read-out: KM, DHF, NADPH saturation 100 μM
Chain of DfrB (P0A017 whole entry): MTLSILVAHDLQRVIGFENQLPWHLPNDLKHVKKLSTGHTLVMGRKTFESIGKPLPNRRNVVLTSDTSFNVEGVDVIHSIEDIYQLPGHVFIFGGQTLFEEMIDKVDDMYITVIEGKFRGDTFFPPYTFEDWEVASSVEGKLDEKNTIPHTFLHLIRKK

DfrA = DfrA (Staphylococcus aureus, UniProt P13955); test: biochemical; assay type: biochemical
Chain of DfrA (P13955 whole entry): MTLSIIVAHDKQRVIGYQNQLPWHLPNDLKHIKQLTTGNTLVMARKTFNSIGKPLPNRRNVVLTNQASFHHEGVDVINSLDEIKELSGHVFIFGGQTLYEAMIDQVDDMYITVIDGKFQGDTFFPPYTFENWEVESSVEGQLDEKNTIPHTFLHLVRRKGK

UCH115 (dfrA) = test: MIC, broth dilution, dfrA clinical isolate; assay type: cell-based; details: Staphylococcus aureus, 18 h, read-out: Minimum Inhibitory Concentrations
HH1184 (dfrK) = test: MIC, broth dilution, dfrK clinical isolate; assay type: cell-based, Staphylococcus aureus; details: for Minimum Inhibitory Concentrations: HH1184 (dfrK), 18 hour, 37°C, isosensitest broth; for MIC: Staphylococcus aureus, 18 h, read-out: Minimum Inhibitory Concentrations
UCH121 (dfrG) = test: MIC, broth dilution, dfrG clinical isolate; assay type: cell-based, Staphylococcus aureus; details: for MIC: Staphylococcus aureus, 18 h, read-out: Minimum Inhibitory Concentrations; for Minimum Inhibitory Concentrations: UCH121 (dfrG), 18 hour, 37°C, isosensitest broth
DfrG [4] = biological target: T2, DfrG; test: biochemical
DfrK [5] = biological target: T1, DfrK; test: biochemical; details: Enzymatic inhibition, Table 4, average of three experiments ±SD
MCF10A = test: Mammalian cytotoxicity, Alamar Blue; assay type: cell-based; details: Homo sapiens, MCF-10A, 4 h, read-out: Mammalian Toxicity IC50
HepG2 = test: Mammalian cytotoxicity, Alamar Blue; assay type: cell-based; details: Homo sapiens, HepG2, 4 h, read-out: Mammalian Toxicity IC50

| SMILES | Km (DfrK [1]) [µM] | Km (DfrG [2]) | Km [3] [µM] | Km (DfrB) | Km (DfrA; read-out: KM, DHF, DfrA, NADPH saturation 100 μM) [µM] | MIC (UCH115 (dfrA)) [mg/L] | Minimum Inhibitory Concentrations (HH1184 (dfrK)) [µg/mL] | MIC (HH1184 (dfrK)) [mg/L] | MIC (UCH121 (dfrG)) [mg/L] | Minimum Inhibitory Concentrations (UCH121 (dfrG)) [µg/mL] | Ki (DfrA) [nM] | Ki (DfrG [4]) [nM] | Ki (DfrK [5]) [nM] | IC50 (MCF10A) [mg/L] | IC50 (HepG2) [mg/L] |
| --- | --- | --- | --- | --- | --- | --- | --- | --- | --- | --- | --- | --- | --- | --- | --- |
| Nc1nc(=O)c2c([nH]1)NCC(CNc1ccc(C(=O)N[C@@H](CCC(=O)O)C(=O)O)cc1)=N2 [DHF, dihydrofolate] | 11 | 8.87 µM and 8.9 µM | 10.5 | 13.3 µM and 13.4 µM | 5.76 |  |  |  |  |  |  |  |  |  |  |
| COc1cc(Cc2cnc(N)nc2N)c2c(c1OC)OC(C1CC1)C=C2 (stereo not shown) [Iclaprim, iclaprim] |  |  |  |  |  | 64 (≈ 181 µM) | >250 | > 250 | > 250 | >250 | 90 ± 3 | 1350 ± 10 |  |  |  |
| CN(Cc1cnc2nc(N)nc(N)c2n1)c1ccc(C(=O)N[C@@H](CCC(=O)O)C(=O)O)cc1 [Methotrexate] |  |  |  |  |  | > 250 |  | > 250 | > 250 |  | 0.38 ± 0.04 | 1.8 ± 0.1 | 2.5 ± 0.1 | > 200 | > 200 |
| COc1cc(Cc2cnc(N)nc2N)cc(OC)c1OC [Trimethoprim, trimethoprim] |  |  |  |  |  | 250 (≈ 861 µM) | >1000 | > 1000 | > 1000 | >1000 |  |  |  |  |  |
